We go through nine compounds from publication PMC7982521, “Studies on the Changes of Pharmacokinetics Behaviors of Phytochemicals and the Influence on Endogenous Metabolites After the Combination of Radix Bupleuri and Radix Paeoniae Alba Based on Multi-Component Pharmacokinetics and Metabolomics” (Frontiers in Pharmacology, 2021).

SMILES strings stand for the structures. Structures can show the parent of a compound that is named as a salt. Where two headings read alike, the source gives them in different places.

A short description of the data set: Multi-component pharmacokinetics in rat plasma after oral administration of RB, RPA or RB-RPA extracts (UPLC-HRMS, non-compartmental analysis). It is filed as in vivo, Sprague-Dawley rats. To be noted: for AUC0-t / AUC0-∞ / Cmax / t1/2 / tmax / AUC(0-inf) / half-life: rat plasma, mean ± SD, n = 7. How it is done: (Beijing, China, No. SCXK2018-0011). […] All rats were free to access the water and food until 12 h before the experiment. The animal study was reviewed and approved by the Experimental Animal Ethical Committee of Modern Research Center for Traditional Chinese Medicine, Shanxi University (animal ethic approval number: SXULL2018018), and all experimental procedures were carried out in accordance with the NIH Guide for the Care and Use of Laboratory Animals. After one week of adaptation, twenty-one rats were divided into three groups randomly, with seven rats in each group: 1) RPA group, were oral administration of Radix Paeoniae Alba extract (45 g-herb/kg); 2) RB group, were oral administration of Radix Bupleuri extract (45 g-herb/kg); 3) RB-RPA group, were oral administration of powder mixture of Radix Bupleuri and Radix Paeoniae Alba extracts (containing 45 g-herb/kg Radix Bupleuri and 45 g-herb/kg Radix Paeoniae Alba). […] Each group received intragastric administration with a volume of 10 ml/kg (rat body weight). […] All rats were free to access the water during the experiment. The blood samples at each time point were collected from seven rats. The blood samples were centrifuged at 4,000 rpm for 10 min and frozen at -80°C until analysis. Using a Thermo-Fisher Dionex UltiMate 3000 UHPLC system coupled with a Q Exactive Orbitrap-MS (Thermo-Fisher, United States) and Xcalibur workstation (Thermo-Fisher Scientific Inc.,Waltham, MA, United States) to acquire UPLC-HRMS raw data. Chromatographic separation of herb extracts and plasma samples was performed on an Acquity UPLC HSS T3 column (2.1 mm × 100 mm, 1.8 μm) maintained at 37°C. The flow rate was 0.2 ml/min and the injection volume was 5 μL. […] Mass spectrometry detection conditions were set as follows: the MS data were acquired under positive and negative ionization modes via heated electrospray ionization (HESI) source. […] The Q Exactive Orbitrap-MS has a fast positive and negative ion switching function, which could switch between positive-negative ion modes during the analysis of the same sample. So, we applied the method of switching ion modes in the detection process to quantify all analytes better. […] UPLC/MS/MS calibration and quantitation data were processed with Xcalibur workstation (Thermo-Fisher Scientific Inc., Waltham, MA, United States). For the eight components with standard reference, calculating their concentrations from the standard curves. For the other 30 components without standard reference, their concentrations were analyzed following the regression equations of homologous compounds ([Qiao et al., 2012]): paeoniflorin for P1 and M1 to M3; methylgallate for M4 to M10; saikosaponin […] and […]; saikosaponin […]; saikosaponin […]; saikosaponin B2 for P11 and M25 to […].

Setting [1] is: oral RB single extract 45 g-herb/kg.
Setting [2] is: oral RB-RPA mixed extracts (45 g-herb/kg RB + 45 g-herb/kg RPA).
Where [3] appears, read: oral administration of mixed extracts RB-RPA.
Setting [4] is: oral administration of single extract RPA.
Setting [5] is: male, Sprague-Dawley, rat, plasma, po, 45 g/kg, oral RB single extract 45 g-herb/kg.

As a reminder, the Cmax is the maximum level reached in the sampled fluid or tissue. On to `C[C@H]1O[C@@H](O[C@@H]2CC[C@@]3(C)[C@@H](CC[C@]4(C)[C@@H]3C=C[C@]35OC[C@@]6(CCC(C)(C)C[C@H]63)[C@@H](O)C[C@]54C)[C@@]2(C)CO)[C@H](O)[C@@H](O)[C@H]1O` [Prosaikogenin G], for which, under setting [1], the AUC0-t was determined as 10.10 ± 4.96 ng·h/mL, the “AUC0-∞” value was found to be 11.33 ± 5.65 ng·h/mL, the Cmax was 5.81 ± 2.73 ng/mL and the t1/2 worked out at 1.48 ± 0.50 h. Besides, the tmax under setting [1] was determined as 0.79 ± 0.10 h. Further, under setting [2], the AUC0-t amounted to 11.50 ± 5.88 ng·h/mL, the “AUC0-∞” value was 12.94 ± 6.57 ng·h/mL, the Cmax is 6.08 ± 3.17 ng/mL and the t1/2 is 1.48 ± 0.63 h. Further, the tmax under setting [2] was 0.75 ± 0.16 h.
As to `O=S(=O)(O)Oc1cccc(O)c1O` [Pyrogallol sulfate], under setting [3], the AUC0-t turned out to be 217.62 ± 126.82 ng·h/mL, the “AUC0-∞” value is 257.66 ± 175.61 ng·h/mL, the Cmax is 24.16 ± 13.26 ng/mL and the t1/2 worked out at 7.54 ± 3.63 h. Under setting [3], this compound came in with a tmax of 1.75 ± 0.61 h. For the same compound, under setting [4], the AUC0-t turned out to be 164.21 ± 79.60 ng·h/mL, the “AUC0-∞” value was 187.63 ± 91.25 ng·h/mL, the Cmax amounted to 18.42 ± 5.81 ng/mL and the t1/2 came out at 7.72 ± 3.81 h. In addition, under setting [4], the tmax amounted to 2.50 ± 0.78 h.
On to `CC1(C)CC[C@@]2(CO)C(=C3C=C[C@@H]4[C@@]5(C)CC[C@H](O)[C@@](C)(CO)[C@@H]5CC[C@@]4(C)[C@]3(C)C[C@H]2O)C1` [Saikogenin D], for which, under setting [1], the AUC0-t was determined as 81.39 ± 36.37 ng·h/mL, the “AUC0-∞” value turned out to be 85.33 ± 40.21 ng·h/mL, the Cmax is 16.51 ± 8.25 ng/mL and the t1/2 was 5.10 ± 1.21 h. The tmax under setting [1] came out at 1.17 ± 0.26 h. Under setting [2], the AUC0-t stood at 131.78 ± 59.75 ng·h/mL, the “AUC0-∞” value came to 141.32 ± 65.28 ng·h/mL, the Cmax was found to be 19.75 ± 10.49 ng/mL and the t1/2 was determined as 5.78 ± 2.37 h. Moreover, under setting [2], the tmax was 0.92 ± 0.20 h.
For the compound `CC1(C)CC[C@]23CO[C@@]4(C=C[C@@H]5[C@@]6(C)CC[C@H](O)C(C)(C)[C@@H]6CC[C@@]5(C)[C@]4(C)C[C@@H]2O)[C@@H]3C1` [Saikogenin E], under setting [1], the AUC0-t came to 34.53 ± 9.88 ng·h/mL, the “AUC0-∞” value stood at 38.46 ± 9.92 ng·h/mL, the Cmax amounted to 12.31 ± 5.03 ng/mL and the t1/2 came to 3.40 ± 1.47 h. This compound gave a tmax under setting [1] of 0.75 ± 0.16 h. For the same compound, under setting [2], the AUC0-t was 40.24 ± 15.68 ng·h/mL, the “AUC0-∞” value came out at 45.24 ± 14.83 ng·h/mL, the Cmax turned out to be 13.41 ± 6.28 ng/mL and the t1/2 was 3.99 ± 2.19 h. Also, under setting [2], the tmax came out at 0.79 ± 0.10 h.
Regarding `CC1(C)CC[C@]23CO[C@@]4(C=C[C@@H]5[C@@]6(C)CC[C@H](O)[C@@](C)(CO)[C@@H]6CC[C@@]5(C)[C@]4(C)C[C@@H]2O)[C@@H]3C1` [Saikogenin F], under setting [1], the AUC0-t amounted to 156.14 ± 83.93 ng·h/mL, the “AUC0-∞” value came to 159.01 ± 82.32 ng·h/mL, the Cmax came to 30.25 ± 13.93 ng/mL and the t1/2 worked out at 4.01 ± 1.88 h. Further, the tmax under setting [1] is 1.04 ± 0.25 h. In addition, under setting [2], the AUC0-t came out at 301.08 ± 199.77 ng·h/mL, the “AUC0-∞” value came to 347.02 ± 174.43 ng·h/mL, the Cmax worked out at 34.09 ± 17.25 ng/mL and the t1/2 was found to be 6.80 ± 2.11 h. Moreover, the tmax under setting [2] was found to be 1.17 ± 0.26 h.
`CC1(C)CC[C@]23CO[C@@]4(C=C[C@@H]5[C@@]6(C)CC[C@H](O)[C@@](C)(CO)[C@@H]6CC[C@@]5(C)[C@]4(C)C[C@H]2O)[C@@H]3C1` [Saikogenin G]: under setting [1], the AUC0-t came out at 50.01 ± 16.60 ng·h/mL, the “AUC0-∞” value came out at 57.20 ± 17.81 ng·h/mL, the Cmax was 11.26 ± 4.74 ng/mL and the t1/2 came to 3.96 ± 1.59 h. For the same compound, the tmax under setting [1] worked out at 0.75 ± 0.00 h. Besides, under setting [2], the AUC0-t worked out at 88.79 ± 41.87 ng·h/mL, the “AUC0-∞” value amounted to 99.59 ± 41.70 ng·h/mL, the Cmax came out at 12.67 ± 4.42 ng/mL and the t1/2 was 6.53 ± 2.21 h. In addition, the tmax under setting [2] is 0.71 ± 0.10 h.
Broadly, the AUC(0-inf) is total exposure, with the tail of the curve extrapolated. One may read the half-life as the time needed for the level to fall by half in the phase considered. Consider `C[C@H]1O[C@@H](O[C@H]2CC[C@@]3(C)[C@@H](CC[C@]4(C)[C@@H]3C=C[C@]35OC[C@@]6(CCC(C)(C)C[C@H]63)[C@@H](O)C[C@]54C)[C@]2(C)CO)[C@H](O)[C@@H](O[C@@H]2O[C@H](CO)[C@@H](O)[C@H](O)[C@H]2O)[C@H]1O` [Saikosaponin A], for which the AUC(0-inf) runs as follows: under setting [5], 104 ± 38.6 ng·h/mL; (male, Sprague-Dawley, rat, plasma, po, 45 g/kg, oral RB-RPA mixed extracts (45 g-herb/kg RB + 45 g-herb/kg RPA)) 176 ± 45.9 ng·h/mL. The half-life by setting is: under setting [5], 2.13 ± 0.43 h; (male, Sprague-Dawley, rat, plasma, po, oral RB-RPA mixed extracts (45 g-herb/kg RB + 45 g-herb/kg RPA)) 3.55 ± 0.57 h. Besides, the AUC0-t was determined as 102 ± 38.5 ng·h/mL (male, Sprague-Dawley, rat, plasma, po, 45 g/kg, oral RB single extract 45 g-herb/kg, read-out: AUC0-t) and 170 ± 48.2 ng·h/mL (male, Sprague-Dawley, rat, plasma, po, oral RB-RPA mixed extracts (45 g-herb/kg RB + 45 g-herb/kg RPA), read-out: AUC0-t). The Cmax (male, Sprague-Dawley, rat, plasma, po, 45 g/kg, oral RB single extract 45 g-herb/kg, read-out: Cmax) was determined as 68.4 ± 16.9 ng/mL and the Cmax (male, Sprague-Dawley, rat, plasma, po, 45 g/kg, oral RB-RPA mixed extracts (45 g-herb/kg RB + 45 g-herb/kg RPA), read-out: Cmax) was 46.5 ± 12.4 ng/mL. Further, the tmax turned out to be 0.54 ± 0.1 h (male, Sprague-Dawley, rat, plasma, po, 45 g/kg, oral RB single extract 45 g-herb/kg, read-out: tmax) and 0.63 ± 0.21 h (male, Sprague-Dawley, rat, plasma, po, oral RB-RPA mixed extracts (45 g-herb/kg RB + 45 g-herb/kg RPA), read-out: tmax). For the same compound, the “change of t1/2 after combination” value (rat, oral RB-RPA group vs single herbal group) was “longer”.
For `C[C@H]1O[C@@H](O[C@H]2CC[C@@]3(C)[C@@H](CC[C@]4(C)[C@@H]3C=CC3=C5CC(C)(C)CC[C@]5(CO)[C@H](O)C[C@]34C)[C@]2(C)CO)[C@H](O)[C@@H](O[C@@H]2O[C@H](CO)[C@@H](O)[C@H](O)[C@H]2O)[C@H]1O` [Saikosaponin B2], under setting [1], the AUC0-t is 65.14 ± 19.35 ng·h/mL, the “AUC0-∞” value turned out to be 67.92 ± 19.39 ng·h/mL, the Cmax was 22.33 ± 2.99 ng/mL and the t1/2 came to 2.70 ± 1.52 h. The compound also came in with a tmax under setting [1] of 0.67 ± 0.13 h. Also, under setting [2], the AUC0-t came out at 98.63 ± 18.36 ng·h/mL, the “AUC0-∞” value turned out to be 104.39 ± 23.28 ng·h/mL, the Cmax stood at 28.19 ± 5.50 ng/mL and the t1/2 came out at 2.89 ± 1.14 h. Also, under setting [2], the tmax was found to be 0.83 ± 0.20 h.
On to `C[C@@H]1O[C@@H](O[C@@H]2[C@H](O)[C@@H](O)[C@H](O[C@H]3CC[C@@]4(C)C(CC[C@]5(C)C4C=C[C@]46OC[C@@]7(CCC(C)(C)CC74)[C@@H](O)C[C@]65C)C3(C)C)O[C@@H]2CO[C@@H]2O[C@H](CO)[C@@H](O)[C@H](O)[C@H]2O)[C@H](O)[C@H](O)[C@H]1O` (stereo partly shown) [Saikosaponin C], for which, under setting [1], the AUC0-t stood at 38.82 ± 9.84 ng·h/mL, the “AUC0-∞” value turned out to be 42.15 ± 8.73 ng·h/mL, the Cmax stood at 31.12 ± 11.08 ng/mL and the t1/2 was determined as 2.07 ± 1.12 h. This compound gave a tmax under setting [1] of 0.50 ± 0.16 h. Further, under setting [2], the AUC0-t turned out to be 51.33 ± 16.19 ng·h/mL, the “AUC0-∞” value was determined as 53.67 ± 16.16 ng·h/mL, the Cmax worked out at 20.63 ± 5.65 ng/mL and the t1/2 worked out at 2.53 ± 1.54 h. In addition, under setting [2], the tmax was determined as 0.66 ± 0.30 h.
